Results on two molecules are retold here after US12686873B2, “Plants having increased tolerance to herbicides” (priority 2012, dated 2026).

What all share (experiment): biochemical
In assay [1] the target is wild type and amino acid substituted PPO enzyme (Amaranthus tuberculatus, UniProt Q0NZW9, F420V/L397Q). Conditions: IC50 (M).
The target in assay [2] is wild type and amino acid substituted PPO enzyme (Amaranthus tuberculatus, UniProt Q0NZW9, F204I/T208S). To be noted: IC50 (M).
The target in assay [3] is wild type and amino acid substituted PPO enzyme (Amaranthus tuberculatus, UniProt Q0NZW9, F204I/F457M/T208S). To be noted: IC50 (M).
Assay [4] has as its target wild type and amino acid substituted PPO enzyme (Amaranthus tuberculatus, UniProt Q0NZW9, F420M/L397D). Conditions: IC50 (M).
In assay [5] the target is wild type and amino acid substituted PPO enzyme (Amaranthus tuberculatus, UniProt Q0NZW9, L397D/R128A). Conditions: IC50 (M).
The target of assay [6] is wild type and amino acid substituted PPO enzyme (Amaranthus tuberculatus, UniProt Q0NZW9, F420V/R128A/T208S). Conditions: IC50 (M).
The target in assay [7] is wild type and amino acid substituted PPO enzyme (Amaranthus tuberculatus, UniProt Q0NZW9, L397D/T208S). Conditions: IC50 (M).
The target in assay [8] is wild type and amino acid substituted PPO enzyme (Amaranthus tuberculatus, UniProt Q0NZW9, F204I/F457M). To be noted: IC50 (M).
The target of assay [9] is wild type and amino acid substituted PPO enzyme (Amaranthus tuberculatus, UniProt Q0NZW9, F420V/T208S). To be noted: IC50 (M).
The target of assay [10] is wild type and amino acid substituted PPO enzyme (Amaranthus tuberculatus, UniProt Q0NZW5).
Assay [11] has as its target wild type and amino acid substituted PPO enzyme (Amaranthus tuberculatus, UniProt Q0NZW9, F457M/T208S). Conditions: IC50 (M).
For assay [12], the target named is wild type and amino acid substituted PPO enzyme (Amaranthus tuberculatus, UniProt Q0NZW9, F420V/L397T). To be noted: IC50 (M).
For assay [13], the target named is wild type and amino acid substituted PPO enzyme (Amaranthus tuberculatus, UniProt Q0NZW9, F204I/F420V/L400A). To be noted: IC50 (M).
Assay [14] has as its target wild type and amino acid substituted PPO enzyme (Amaranthus tuberculatus, UniProt Q0NZW9, F420V/L397V). To be noted: IC50 (M).
Assay [15] addresses wild type and amino acid substituted PPO enzyme (Amaranthus tuberculatus, UniProt Q0NZW9, F420M/L397C). Conditions: IC50 (M).
Assay [16] has as its target wild type and amino acid substituted PPO enzyme (Amaranthus tuberculatus, UniProt Q0NZW9, F420M/L397A). To be noted: IC50 (M).
Assay [17] concerns the target wild type and amino acid substituted PPO enzyme (Amaranthus tuberculatus, UniProt Q0NZW9, F457M/L400A/T208S). Conditions: IC50 (M).
The target of assay [18] is wild type and amino acid substituted PPO enzyme (Amaranthus tuberculatus, UniProt Q0NZW9, F204I/L397D/T208S). To be noted: IC50 (M).
For assay [19], the target named is wild type and amino acid substituted PPO enzyme (Amaranthus tuberculatus, UniProt Q0NZW9, F420V/F457M/T208S). To be noted: IC50 (M).
Assay [20] addresses wild type and amino acid substituted PPO enzyme (Amaranthus tuberculatus, UniProt Q0NZW9, F204I/F420A/F457M/L400A). Conditions: IC50 (M).
Assay [21] addresses wild type and amino acid substituted PPO enzyme (Amaranthus tuberculatus, UniProt Q0NZW9, F204I/L397D/L400A/T208S). Conditions: IC50 (M).
Assay [22] concerns the target wild type and amino acid substituted PPO enzyme (Amaranthus tuberculatus, UniProt Q0NZW9, F420V/L397S). Conditions: IC50 (M).
Assay [23] deals with wild type and amino acid substituted PPO enzyme (Amaranthus tuberculatus, UniProt Q0NZW9, F420M/L397S). To be noted: IC50 (M).
In assay [24] the target is wild type and amino acid substituted PPO enzyme (Amaranthus tuberculatus, UniProt Q0NZW9, F204I/F420V/F457M/L400A/T208S). Conditions: IC50 (M).
For assay [25], the target named is wild type and amino acid substituted PPO enzyme (Amaranthus tuberculatus, UniProt Q0NZW9, F420V/L397C). To be noted: IC50 (M).
The target in assay [26] is wild type and amino acid substituted PPO enzyme (Amaranthus tuberculatus, UniProt Q0NZW9, F420M/L397V). To be noted: IC50 (M).
Assay [27] has as its target wild type and amino acid substituted PPO enzyme (Amaranthus tuberculatus, UniProt Q0NZW9, F457M/L400A). Conditions: IC50 (M).
The target in assay [28] is wild type and amino acid substituted PPO enzyme (Amaranthus tuberculatus, UniProt Q0NZW9, F420V/F457M). Conditions: IC50 (M).
The target of assay [29] is wild type and amino acid substituted PPO enzyme (Amaranthus tuberculatus, UniProt Q0NZW9, F204I/F457M/L400A/T208S). Conditions: IC50 (M).
Assay [30] concerns the target wild type and amino acid substituted PPO enzyme (Amaranthus tuberculatus, UniProt Q0NZW9, F204I/F420V/F457M/T208S). Conditions: IC50 (M).
The target of assay [31] is wild type and amino acid substituted PPO enzyme (Amaranthus tuberculatus, UniProt Q0NZW9, F204I/F420V). To be noted: IC50 (M).
In assay [32] the target is wild type and amino acid substituted PPO enzyme (Amaranthus tuberculatus, UniProt Q0NZW9, F204I/F420V/F457M/L400A/R128A). Conditions: IC50 (M).
For assay [33], the target named is wild type and amino acid substituted PPO enzyme (Amaranthus tuberculatus, UniProt Q0NZW9, F204I/L400A). Conditions: IC50 (M).
In assay [34] the target is wild type and amino acid substituted PPO enzyme (Amaranthus tuberculatus, UniProt Q0NZW9, F204I/F420V/F457M/R128A). Conditions: IC50 (M).
For assay [35], the target named is wild type and amino acid substituted PPO enzyme (Amaranthus tuberculatus, UniProt Q0NZW9, F204I/L400A/T208S). To be noted: IC50 (M).
For assay [36], the target named is wild type and amino acid substituted PPO enzyme (Amaranthus tuberculatus, UniProt Q0NZW9, F204I/F420V/F457M). Conditions: IC50 (M).
Assay [37] has as its target wild type and amino acid substituted PPO enzyme (Amaranthus tuberculatus, UniProt Q0NZW9, F204I/F420V/T208S). Conditions: IC50 (M).

Where “and” joins values, the source holds several entries; their conditions need not be identical. Identical values can stand only once. Bounds are passed on as bounds.

Sequence of wild type and amino acid substituted PPO enzyme (Amaranthus tuberculatus, UniProt Q0NZW9, F204I/F457M/T208S) (Q0NZW9 1-534 F204I/T208S/F457M): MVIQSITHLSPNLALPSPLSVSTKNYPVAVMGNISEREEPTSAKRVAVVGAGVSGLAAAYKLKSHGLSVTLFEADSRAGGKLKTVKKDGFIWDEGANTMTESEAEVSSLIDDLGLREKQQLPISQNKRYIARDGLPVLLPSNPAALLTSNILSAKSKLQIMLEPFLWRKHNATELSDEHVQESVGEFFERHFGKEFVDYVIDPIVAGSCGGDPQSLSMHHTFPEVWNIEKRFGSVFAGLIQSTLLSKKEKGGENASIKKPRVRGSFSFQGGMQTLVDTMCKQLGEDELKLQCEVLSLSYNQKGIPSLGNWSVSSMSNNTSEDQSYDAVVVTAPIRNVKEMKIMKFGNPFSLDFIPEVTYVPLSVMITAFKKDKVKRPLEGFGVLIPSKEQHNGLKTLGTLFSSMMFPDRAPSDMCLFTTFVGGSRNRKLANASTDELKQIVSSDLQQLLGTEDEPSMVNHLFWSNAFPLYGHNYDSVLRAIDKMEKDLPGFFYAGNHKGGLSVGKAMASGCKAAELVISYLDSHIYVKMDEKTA
Sequence of wild type and amino acid substituted PPO enzyme (Amaranthus tuberculatus, UniProt Q0NZW9, F420V/R128A/T208S) (Q0NZW9 1-534 R128A/T208S/F420V): as the sequence (Q0NZW9 1-534 F204I/T208S/F457M) above, with R128A, I204F, F420V, M457F counted along it
Sequence of wild type and amino acid substituted PPO enzyme (Amaranthus tuberculatus, UniProt Q0NZW9, L397D/T208S) (Q0NZW9 1-534 T208S/L397D): as the sequence (Q0NZW9 1-534 F204I/T208S/F457M) above, with I204F, L397D, M457F counted along it
Sequence of wild type and amino acid substituted PPO enzyme (Amaranthus tuberculatus, UniProt Q0NZW9, F204I/F457M) (Q0NZW9 1-534 F204I/F457M): as the sequence (Q0NZW9 1-534 F204I/T208S/F457M) above, with S208T counted along it
Sequence of wild type and amino acid substituted PPO enzyme (Amaranthus tuberculatus, UniProt Q0NZW5) (Q0NZW5 entry or part of it): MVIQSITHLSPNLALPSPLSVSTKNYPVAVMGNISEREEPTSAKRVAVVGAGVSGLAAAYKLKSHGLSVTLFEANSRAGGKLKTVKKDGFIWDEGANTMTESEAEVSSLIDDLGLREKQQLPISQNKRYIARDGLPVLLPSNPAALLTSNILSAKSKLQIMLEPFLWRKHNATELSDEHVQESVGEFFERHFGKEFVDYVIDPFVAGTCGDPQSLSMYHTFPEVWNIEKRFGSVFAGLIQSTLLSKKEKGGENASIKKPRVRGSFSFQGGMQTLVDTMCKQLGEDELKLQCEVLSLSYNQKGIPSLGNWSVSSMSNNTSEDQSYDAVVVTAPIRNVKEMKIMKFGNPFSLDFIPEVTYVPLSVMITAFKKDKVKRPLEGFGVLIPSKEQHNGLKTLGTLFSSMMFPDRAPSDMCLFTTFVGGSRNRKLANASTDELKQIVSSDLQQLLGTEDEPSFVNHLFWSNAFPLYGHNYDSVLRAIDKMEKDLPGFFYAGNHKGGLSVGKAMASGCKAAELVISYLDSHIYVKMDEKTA
Sequence of wild type and amino acid substituted PPO enzyme (Amaranthus tuberculatus, UniProt Q0NZW9, F420V/T208S) (Q0NZW9 1-534 T208S/F420V): as the sequence (Q0NZW9 1-534 F204I/T208S/F457M) above, with I204F, F420V, M457F counted along it
Sequence of wild type and amino acid substituted PPO enzyme (Amaranthus tuberculatus, UniProt Q0NZW9, F420M/L397D) (Q0NZW9 1-534 L397D/F420M): as the sequence (Q0NZW9 1-534 F204I/T208S/F457M) above, with I204F, S208T, L397D, F420M, M457F counted along it
Sequence of wild type and amino acid substituted PPO enzyme (Amaranthus tuberculatus, UniProt Q0NZW9, F204I/T208S) (Q0NZW9 1-534 F204I/T208S): as the sequence (Q0NZW9 1-534 F204I/T208S/F457M) above, with M457F counted along it
Sequence of wild type and amino acid substituted PPO enzyme (Amaranthus tuberculatus, UniProt Q0NZW9, F457M/T208S) (Q0NZW9 1-534 T208S/F457M): as the sequence (Q0NZW9 1-534 F204I/T208S/F457M) above, with I204F counted along it

As usually defined, the IC50 is the midpoint of a concentration-inhibition curve. Read a low IC50 as higher potency. On to `CC(C)N(C)S(=O)(=O)NC(=O)c1cc(-n2c(=O)cc(C(F)(F)F)n(C)c2=O)c(F)cc1Cl` [saflufenacil], for which the IC50 was over 1e-05 M in assay [1]; 5.89e-11 M in [2]; 5.11e-11 M in [3]; over 1e-05 M in assay [4]; at least 1e-05 M in assay [5]; over 1e-05 M in assay [6]. The IC50 in assay [7] was found to be 4.08e-07 M; in assay [8] it was 1.89e-11 M; in [9], 8.48e-07 M; in assay [10], 1600 nM; in assay [11], 1.02e-10 M.

Take `C#CCN1C(=O)C(F)(F)Oc2cc(F)c(-n3c(=O)n(C)c(=S)n(C)c3=O)cc21`: the IC50 in assay [1] was 1.01e-07 M; in assay [12] it was 1.31e-08 M; in assay [2], 1.29e-10 M; in assay [3] it was 4.21e-11 M and 1.7e-10 M; in assay [13] it was 8.23e-08 M; in assay [14] it was 1.21e-08 M. Further, the IC50 in [15] is 1.79e-09 M; in assay [16] it was 4.53e-09 M; in [17], 9.68e-12 M; in assay [18] it was 5.52e-11 M; in [19] it was 3.41e-09 M; in assay [20] it was 3.69e-08 M. Besides, the IC50 in [21] amounted to 2.38e-09 M; in assay [22], 4.26e-08 M; in assay [4], 2.95e-08 M; in assay [23] it was 3.33e-09 M; in assay [5], 5.9e-09 M; in assay [24] it was 9.24e-08 M. In addition, the IC50 in assay [25] is 5.54e-08 M; in [26], 1.05e-09 M; in assay [6] it was 1.25e-08 M; in assay [7], 1.25e-10 M; in assay [8] it was 7.52e-11 M; in assay [27] it was 1.35e-11 M. In addition, the half-maximal inhibitory concentration (IC50) in assay [28] is 1.02e-09 M; in assay [29], 2.88e-11 M; in [9], 2.34e-09 M; in [30], 4.72e-09 M; in assay [31] it was 4.69e-09 M; in [32], 4.05e-07 M. The IC50 in assay [10] was 2.12 nM; in assay [33], 4.57e-11 M; in assay [11] it was 1.95e-10 M; in assay [34], 4.63e-08 M; in assay [35], 2.64e-11 M; in assay [36], 2.1e-09 M. Moreover, in [37], the IC50 came out at 3.87e-09 M.
